Here are results for 14 molecules from ChEMBL document CHEMBL1201862, “PubChem BioAssay data set” (2004).

Test systems include M14; COLO 205; SW-620; OVCAR-5; HOP-62; NCI-H460; U-251; SF-268; RPMI-8226; SN12C; HT-29; KM12; NCI-H226; Malme-3M; NCI-H522; HCT-116.
What all share (test): NCI-60 cell line screen, 48 h

Each structure is given as a SMILES string.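 The compound was tested at five concentrations on cells cultured in 96-well plates, with a 48-hour exposure period. GI50 = concentration required for 50% inhibition of growth.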 Calls of active or inactive are those of the source. Cut-off read from the data, not from the text of the source: active = GI50 up to about 1.1 µM and inactive = higher. A value given as a limit tells only on which side of the number the result lay.

Consider `O=[N+]([O-])c1ccccc1C1N2CCCCC2[C@@H]2c3[nH]c4ccccc4c3CCN12` (stereo partly specified), for which the GI50 with M14 was 13.7 µM (inactive); in the experiment on COLO 205 it was 13.2 µM (inactive); in the experiment with SW-620, 11.4 µM (inactive); in the experiment with OVCAR-5, 19.1 µM (inactive); in the experiment on HOP-62, 14.8 µM (inactive); in the experiment on NCI-H460 it was 17.7 µM (inactive). In addition, the GI50 with U-251 was 15.6 µM (inactive); in the experiment on SF-268, 11.6 µM (inactive); in the experiment on RPMI-8226, 10.9 µM (inactive); in the experiment on SN12C, 13.6 µM (inactive); in the experiment with HT-29, 7.53 µM (inactive).
Consider `O=C(Cc1nc2ccccc2s1)Nc1cccc(C(F)(F)F)c1`, for which the GI50 in the experiment with KM12 is 15.2 µM (inactive); with NCI-H226, 21.8 µM (inactive); with M14, 15.6 µM (inactive); with COLO 205, 17 µM (inactive); in the experiment with SW-620, 19.2 µM (inactive); with OVCAR-5, 18.5 µM (inactive). The GI50 is 17.9 µM (inactive) in the experiment on HOP-62; 15.8 µM (inactive) in the experiment on NCI-H460; 16.6 µM (inactive) in the experiment with Malme-3M; 14.8 µM (inactive) with SF-268; 7.5 µM (inactive) in the experiment with RPMI-8226; 14.1 µM (inactive) in the experiment on NCI-H522. For the same molecule, the GI50 in the experiment on SN12C is 16.1 µM (inactive); in the experiment with HT-29, 17.1 µM (inactive).
Regarding `CCOC(=O)c1ccc(/C(C)=N/NC(N)=S)cc1`, the GI50 with HCT-116, with M14, in the experiment on COLO 205, with SW-620, with HOP-62 and with NCI-H460 was > 100 µM (inactive) each time. In addition, the GI50 with U-251, with RPMI-8226 and in the experiment on SN12C was > 100 µM (inactive) each time.
For `CCOC(=O)NC(=O)c1cn(CCCOC(=O)CCCCCCCCCCC(=O)OCCCn2cc(C(=O)NC(=O)OCC)c(=O)[nH]c2=O)c(=O)[nH]c1=O`, the GI50 in the experiment with KM12, in the experiment on HCT-116, with NCI-H226, in the experiment on M14, in the experiment with COLO 205 and in the experiment on SW-620 was > 100 µM (inactive) each time. Besides, the GI50 with OVCAR-5, in the experiment on HOP-62, in the experiment on NCI-H460, in the experiment on Malme-3M, in the experiment on U-251 and with SF-268 was > 100 µM (inactive) throughout. Also, the GI50 in the experiment on RPMI-8226, in the experiment with SN12C and in the experiment with HT-29 was > 100 µM (inactive) each time.
As for `CC(C)OP(=O)(OC(C)C)/C(N)=N/Nc1ccc([N+](=O)[O-])cc1`, the GI50 in the experiment on KM12 is > 100 µM (inactive); with HCT-116, 86.3 µM (inactive); with NCI-H226 it was 53 µM (inactive); with M14 it was > 100 µM (inactive); in the experiment on COLO 205 it was > 100 µM (inactive); with SW-620, > 100 µM (inactive). The GI50 with OVCAR-5 was > 100 µM (inactive); with HOP-62, > 100 µM (inactive); with NCI-H460, 41.7 µM (inactive); with Malme-3M it was > 100 µM (inactive); with U-251 it was > 100 µM (inactive); with SF-268, > 100 µM (inactive). The GI50 in the experiment with RPMI-8226 is > 100 µM (inactive); in the experiment on NCI-H522, 68.7 µM (inactive); with SN12C it was > 100 µM (inactive).
On to `CCc1cccc(C(C)C)c1NC(=O)/C(=N\NC(N)=O)C(C(=O)OC)c1cnc2ccccc2n1` (stereo unspecified), for which the GI50 was 41.6 µM (inactive) in the experiment with KM12; 24.2 µM (inactive) in the experiment with HCT-116; 50.5 µM (inactive) in the experiment with NCI-H226; 39.6 µM (inactive) with M14; 20.9 µM (inactive) with COLO 205; 39.5 µM (inactive) with SW-620. Besides, the GI50 in the experiment on OVCAR-5 is > 100 µM (inactive); in the experiment on HOP-62 it was 40.6 µM (inactive); in the experiment with NCI-H460 it was 31.6 µM (inactive); with Malme-3M, 34.4 µM (inactive); in the experiment on U-251 it was 40.2 µM (inactive); with SF-268, > 100 µM (inactive). Further, the GI50 is 24.9 µM (inactive) with NCI-H522, 35 µM (inactive) in the experiment on SN12C and 35.8 µM (inactive) in the experiment with HT-29.
With `CN(C)/C=N\c1nc(=O)n(C2CCC(CO)O2)cc1F` (stereo unspecified), the GI50 with KM12, in the experiment on NCI-H226, in the experiment on M14, with COLO 205, in the experiment on SW-620 and with OVCAR-5 was > 100 µM (inactive) each time. The GI50 with HOP-62, in the experiment on NCI-H460, in the experiment on Malme-3M, with U-251, in the experiment with SF-268 and in the experiment on RPMI-8226 was > 100 µM (inactive) each time. Further, the GI50 with NCI-H522, in the experiment on SN12C and in the experiment on HT-29 was > 100 µM (inactive) in each case.
Consider `O=[N+]([O-])C1Cc2ccccc2OC1c1ccccc1` (stereo unspecified), for which the GI50 in the experiment with KM12 is > 100 µM (inactive); in the experiment with HCT-116, 66.4 µM (inactive); in the experiment on NCI-H226, > 100 µM (inactive); with M14, > 100 µM (inactive); in the experiment on COLO 205 it was 69 µM (inactive); in the experiment on SW-620 it was > 100 µM (inactive). In addition, the GI50 is > 100 µM (inactive) in the experiment with OVCAR-5; 33.5 µM (inactive) with HOP-62; > 100 µM (inactive) in the experiment on Malme-3M; 40.6 µM (inactive) in the experiment with U-251; 36.1 µM (inactive) with SF-268; 26.6 µM (inactive) in the experiment with NCI-H522. The GI50 in the experiment with SN12C is 21.7 µM (inactive); in the experiment on HT-29, 83.8 µM (inactive).
As to `O=C(/C=C(\O)C(=O)O)/C=C(\O)c1ccccc1`, the GI50 was > 4.65 µM (inactive) with HCT-116; > 4.65 µM (inactive) in the experiment with NCI-H226; > 100 µM (inactive) with M14; > 4.65 µM (inactive) with COLO 205; > 4.65 µM (inactive) in the experiment with SW-620; > 4.65 µM (inactive) in the experiment on HOP-62. Moreover, the GI50 in the experiment on NCI-H460, in the experiment on U-251, with SF-268, in the experiment on SN12C and with HT-29 was > 4.65 µM (inactive) each time.
With `COC(=O)C1=C(c2ccc3c(c2)OCO3)OC(c2cc(OC)c(OC)c(OC)c2)C1` (stereo unspecified), the GI50 in the experiment with HCT-116 was 2.88 µM (inactive); with NCI-H226 it was 3.81 µM (inactive); in the experiment with M14 it was 3.53 µM (inactive); in the experiment with COLO 205, 1.2 µM (inactive); in the experiment with SW-620, 0.557 µM (active); in the experiment on OVCAR-5 it was > 100 µM (inactive). Also, the GI50 in the experiment on HOP-62 is > 100 µM (inactive); with NCI-H460 it was 3.49 µM (inactive); in the experiment with Malme-3M, 4.74 µM (inactive); in the experiment with U-251, 2.34 µM (inactive); with SF-268, 31.6 µM (inactive); with RPMI-8226, 8.87 µM (inactive). Further, the GI50 is 4.5 µM (inactive) in the experiment with SN12C and 1.29 µM (inactive) in the experiment on HT-29.
Consider `c1ccc(C2N3CCCCC3[C@@H]3c4[nH]c5ccccc5c4CCN23)nc1` (stereo partly specified), for which the GI50 in the experiment with HCT-116, in the experiment with M14, in the experiment on SW-620, in the experiment on OVCAR-5, with HOP-62 and in the experiment on NCI-H460 was > 100 µM (inactive) each time. The GI50 is > 100 µM (inactive) in the experiment with U-251; 47.9 µM (inactive) in the experiment with SF-268; > 100 µM (inactive) with RPMI-8226; > 100 µM (inactive) in the experiment on SN12C; > 100 µM (inactive) in the experiment with HT-29.
Turning to `Clc1ccc(Cc2nc3ccccc3s2)c(Cl)c1`, the GI50 in the experiment on KM12 was 16.6 µM (inactive); in the experiment with NCI-H226, 20.4 µM (inactive); in the experiment with M14 it was 16.4 µM (inactive); in the experiment on COLO 205 it was 17 µM (inactive); in the experiment with SW-620, 21.8 µM (inactive); with OVCAR-5 it was 19.3 µM (inactive). For the same molecule, the GI50 in the experiment with HOP-62 was 18.3 µM (inactive); in the experiment on NCI-H460, 19.8 µM (inactive); in the experiment with Malme-3M, 16.9 µM (inactive); in the experiment on SF-268, 15.7 µM (inactive); in the experiment on RPMI-8226, 17.7 µM (inactive); in the experiment with NCI-H522, 15.7 µM (inactive). The values for the GI50 in the experiment on SN12C and with HT-29 were 16.5 µM (inactive) and 20.6 µM (inactive), respectively.
Consider `O=C(c1ccccc1)c1ccc2cccc(O)c2n1`, for which the GI50 is 74.5 µM (inactive) in the experiment with KM12; 6.14 µM (inactive) with HCT-116; 38.5 µM (inactive) with NCI-H226; 13.8 µM (inactive) in the experiment on M14; 37.5 µM (inactive) in the experiment on COLO 205; 13.5 µM (inactive) in the experiment with SW-620. Further, the GI50 was 60.8 µM (inactive) in the experiment on OVCAR-5; 52.4 µM (inactive) in the experiment with HOP-62; 36.1 µM (inactive) in the experiment on Malme-3M; 18.5 µM (inactive) in the experiment on U-251; 27.5 µM (inactive) with SF-268; 10.6 µM (inactive) in the experiment on RPMI-8226. Moreover, the GI50 with NCI-H522 was 8.38 µM (inactive); in the experiment with SN12C, 38.8 µM (inactive).
For `O=[N+]([O-])c1ccc(C2=Nc3ccccc3[S+]([O-])C(c3ccccc3)C2)cc1` (stereo unspecified), the GI50 in the experiment on KM12 is 15.3 µM (inactive); in the experiment on NCI-H226, 16.1 µM (inactive); in the experiment with M14, 20.2 µM (inactive); in the experiment with COLO 205, 19.7 µM (inactive); with SW-620 it was 23.1 µM (inactive); in the experiment with OVCAR-5, 25.8 µM (inactive). Further, the GI50 in the experiment with HOP-62 is 26.7 µM (inactive); in the experiment on NCI-H460, 24.5 µM (inactive); with Malme-3M it was 44.8 µM (inactive); in the experiment with SF-268 it was 27.9 µM (inactive); in the experiment with RPMI-8226, 5.56 µM (inactive); in the experiment with NCI-H522 it was 16.7 µM (inactive). Moreover, the GI50 is 23.6 µM (inactive) with SN12C and 19.1 µM (inactive) with HT-29.
